# Data: ChEMBL document CHEMBL1795274, “Synthesis and antiviral activity of cyclopropyl-spirocarbocyclic adenosine, (4R,5S,6R,7R)-4-(6-amino-9H-purin-9-yl)-7-(hydroxymethyl)spiro[2.4]heptane-5,6-diol against hepatitis C virus” (Bioorg Med Chem Lett, 2011)
# The source made the active and inactive calls. The rule behind the calls is not given here.
# Assays:
# [1] = Selectivity index, ratio of CC50 for human HuH7 cells to EC50 for Measles virus by neutral red assay; format: toxicity, cell-based, Huh-7; conditions: read-out: Ratio CC50/EC50
# [2] = tested on: Vaccinia virus; assay: Antiviral activity against Vaccinia virus infected in human HuH7 cells assessed as reduction of virus-induced cytopathic-effect; format: functional, organism-based; conditions: Orthopoxvirus vaccinia, Huh-7
# [3] = tested on: Venezuelan equine encephalitis virus; assay: Antiviral activity against Venezuelan equine encephalitis virus; format: functional, organism-based
# [4] = Selectivity index, ratio of CC50 for human HuH7 cells to EC50 for Vaccinia virus; format: toxicity, cell-based, Huh-7; conditions: read-out: Ratio CC50/EC50
# [5] = tested on: Influenza A virus; assay: Antiviral activity against Influenza A virus H3N2; format: functional, organism-based
# [6] = tested on: unidentified adenovirus; assay: Antiviral activity against Adenovirus infected in human HuH7 cells assessed as reduction of viral level by neutral red assay; format: functional, organism-based; conditions: Huh-7
# [7] = tested on: SARS-CoV; assay: Antiviral activity against SARS coronavirus; format: functional, organism-based; conditions: Severe acute respiratory syndrome-related coronavirus
# [8] = tested on: Human alphaherpesvirus 2; assay: Antiviral activity against HSV2; format: functional, organism-based
# [9] = tested on: Measles morbillivirus; assay: Antiviral activity against Measles virus infected in human HuH7 cells assessed as reduction of viral level by neutral red assay; format: functional, organism-based; conditions: Huh-7
# [10] = tested on: Human respirovirus 3; assay: Antiviral activity against Human parainfluenza virus 3; format: functional, organism-based
# [11] = Selectivity index, ratio of CC50 for human HuH7 cells to EC50 for Adenovirus by visual assay; format: toxicity, cell-based, Huh-7; conditions: read-out: Ratio CC50/EC50
# [12] = Selectivity index, ratio of CC50 for human HuH7 cells to EC50 for HCV 1b; parameters: species or system Huh-7
# [13] = tested on: Human alphaherpesvirus 1; assay: Antiviral activity against HSV1; format: functional, organism-based
# [14] = tested on: West Nile virus; assay: Antiviral activity against West Nile virus; format: functional, organism-based
# [15] = tested on: Hepatitis C virus; assay: Antiviral activity against HCV1a infected in human HuH7 cells expressing E2 glycoprotein assessed as inhibition of viral RNA replication after 5 days; format: functional, organism-based, Hepacivirus hominis; conditions: subtype 1a, Huh-7, 120 h
# [16] = tested on: Influenza A virus; assay: Antiviral activity against Influenza A virus H5N1; format: functional, organism-based
# [17] = Selectivity index, ratio of CC50 for human HuH7 cells to EC50 for HCV 1a; parameters: species or system Huh-7
# [18] = Selectivity index, ratio of CC50 for human HuH7 cells to EC50 for Measles virus by visual assay; format: toxicity, cell-based, Huh-7; conditions: read-out: Ratio CC50/EC50
# [19] = Cytotoxicity against human HuH7 cells; format: cell-based, Huh-7
# [20] = tested on: Cowpox virus; assay: Antiviral activity against Cowpox virus; format: functional, organism-based
# [21] = Selectivity index, ratio of CC50 for human HuH7 cells to EC50 for Adenovirus by neutral red assay; format: toxicity, cell-based, Huh-7; conditions: read-out: Ratio CC50/EC50
# [22] = tested on: Yellow fever virus; assay: Antiviral activity against Yellow fever virus; format: functional, organism-based
# [23] = tested on: Hepatitis B virus; assay: Antiviral activity against Hepatitis B virus; format: functional, organism-based
# [24] = tested on: Hepatitis C virus; assay: Antiviral activity against HCV1b infected in human Huh7 cells expressing E2 glycoprotein assessed as inhibition of viral RNA replication after 5 days; format: functional, organism-based, Hepacivirus hominis; conditions: genotype 1b, Huh-7, 120 h
# [25] = tested on: Enterovirus; assay: Antiviral activity against Rhinovirus; format: functional, organism-based
# [26] = tested on: unidentified adenovirus; assay: Antiviral activity against Adenovirus infected in human HuH7 cells assessed as reduction of viral level by visual assay; format: functional, organism-based; conditions: Huh-7
# [27] = tested on: Influenza A virus; assay: Antiviral activity against Influenza A virus H1N1; format: functional, organism-based
# [28] = tested on: Measles morbillivirus; assay: Antiviral activity against Measles virus infected in human HuH7 cells assessed as reduction of viral level by visual assay; format: functional, organism-based; conditions: Huh-7
# [29] = tested on: Human alphaherpesvirus 3; assay: Antiviral activity against Varicella zoster virus; format: functional, organism-based
# [30] = Cytotoxicity against human HuH7 cells expressing E2 glycoprotein assessed as reduction of rRNA level after 5 days; format: cell-based, Huh-7
smiles,measurement,setting,value
Nc1ncnc2c1ncn2[C@H]1[C@H](O)[C@H](O)[C@@H](CO)C12CC2,selectivity ratio,[1],5
same,EC50,[2],42.7 µM
same,Activity,[3],inactive
same,selectivity ratio,[4],> 7.1
same,Activity,[5],inactive
same,EC50,[6],3 µM
same,Activity,[7],inactive
same,Activity,[8],inactive
same,EC50,[9],9 µM
same,Activity,[10],inactive
same,selectivity ratio,[11],3
same,Ratio CC50/EC50,[12],>272
same,Activity,[13],inactive
same,Activity,[14],inactive
same,EC50,[15],0.273 µM
same,EC90,[15],3 µM
same,Activity,[16],inactive
same,Ratio CC50/EC50,[17],>366
same,selectivity ratio,[18],2
same,CC50,[19],> 10 µM
same,Activity,[20],inactive
same,selectivity ratio,[21],4
same,Activity,[22],inactive
same,Activity,[23],inactive
same,EC50,[24],0.368 µM
same,EC90,[24],1.2 µM
same,Activity,[25],inactive
same,EC50,[26],3 µM
same,Activity,[27],inactive
same,EC50,[28],7 µM
same,Activity,[29],inactive
same,CC50 at 120 h,[30],> 100 µM
C[C@@]1(O)[C@H](O)[C@@H](CO)O[C@H]1n1ccc(N)nc1=O,EC50,[15],1.7 µM
same,EC90,[15],8.2 µM
same,Ratio CC50/EC50,[17],>272
same,CC50 at 120 h,[30],> 300 µM
